Data: article PMC3526713 (Journal of natural products, 2006)

Legend:
Electric eel AChE = Electric eel AChE (Electrophorus electricus, UniProt O42275)
[1] = target: horse serum butyrylcholinesterase (BChE) (Equus caballus, UniProt P81908)
Chain of horse serum butyrylcholinesterase (BChE) (P81908 whole entry): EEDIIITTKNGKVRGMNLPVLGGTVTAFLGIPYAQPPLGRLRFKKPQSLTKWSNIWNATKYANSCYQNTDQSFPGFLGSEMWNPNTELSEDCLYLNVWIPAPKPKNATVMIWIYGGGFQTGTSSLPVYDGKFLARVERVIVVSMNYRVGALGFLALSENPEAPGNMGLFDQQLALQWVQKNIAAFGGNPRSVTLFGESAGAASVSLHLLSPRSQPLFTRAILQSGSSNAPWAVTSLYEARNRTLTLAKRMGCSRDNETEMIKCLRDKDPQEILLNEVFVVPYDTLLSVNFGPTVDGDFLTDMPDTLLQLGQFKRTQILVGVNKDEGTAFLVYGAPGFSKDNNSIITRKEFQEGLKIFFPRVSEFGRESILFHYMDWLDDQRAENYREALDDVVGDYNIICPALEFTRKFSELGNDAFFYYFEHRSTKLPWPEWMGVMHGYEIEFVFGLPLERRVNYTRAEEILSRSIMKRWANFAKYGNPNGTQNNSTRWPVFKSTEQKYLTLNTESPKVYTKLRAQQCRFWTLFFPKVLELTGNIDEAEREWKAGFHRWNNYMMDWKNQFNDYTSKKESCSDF

Chain of Electric eel AChE (O42275 24-633): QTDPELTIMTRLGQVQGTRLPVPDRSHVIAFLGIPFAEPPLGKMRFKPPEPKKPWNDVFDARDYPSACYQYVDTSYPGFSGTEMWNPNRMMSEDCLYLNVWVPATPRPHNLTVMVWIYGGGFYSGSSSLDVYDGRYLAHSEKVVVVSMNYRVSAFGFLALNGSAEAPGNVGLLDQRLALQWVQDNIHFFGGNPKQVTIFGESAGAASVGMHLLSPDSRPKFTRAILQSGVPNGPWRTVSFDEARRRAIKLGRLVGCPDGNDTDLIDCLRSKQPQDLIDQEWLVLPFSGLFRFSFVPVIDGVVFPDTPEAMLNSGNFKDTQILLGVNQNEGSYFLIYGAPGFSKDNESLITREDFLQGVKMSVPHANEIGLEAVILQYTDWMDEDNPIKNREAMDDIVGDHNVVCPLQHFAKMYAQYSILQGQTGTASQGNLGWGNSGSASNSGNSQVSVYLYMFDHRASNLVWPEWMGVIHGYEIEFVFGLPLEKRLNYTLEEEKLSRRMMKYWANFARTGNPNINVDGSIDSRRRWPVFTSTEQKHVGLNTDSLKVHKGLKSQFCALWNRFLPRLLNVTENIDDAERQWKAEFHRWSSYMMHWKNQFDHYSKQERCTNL

SMILES | Effect on AChE (Electric eel AChE) | Effect on BChE [1]
COc1c(O)cc2c3c1-c1ccccc1C[C@H]3NCC2 [Compound 2, 1-methoxy-5,6,6a,7-tetrahydro-4H-dibenzo[de,g]quinolin-2-ol (6aR)] | effects on neither AChE nor BChE | effects on neither AChE nor BChE
COc1ccc2c(=O)oc3c(OC)cc(CCN(C)C)c4c(=O)oc1c2c34 [Compound 1, 1-(2-dimethylaminoethyl)-3,8-dimethoxychromeno[5,4,3-cde]chromene-5,10-dione] |  | no effect on BChE
